Seven compounds from ChEMBL document CHEMBL1221239, “Triaryl (Z)-olefins suitable for radiolabeling with carbon-11 or fluorine-18 radionuclides for positron emission tomography imaging of cyclooxygenase-2 expression in pathological disease” (Bioorg Med Chem Lett, 2010) can be followed below.

Assay [1] concerns the target T1, Prostaglandin G/H synthase 2 (Homo sapiens, UniProt P35354).
T1 sequence (P35354 whole entry): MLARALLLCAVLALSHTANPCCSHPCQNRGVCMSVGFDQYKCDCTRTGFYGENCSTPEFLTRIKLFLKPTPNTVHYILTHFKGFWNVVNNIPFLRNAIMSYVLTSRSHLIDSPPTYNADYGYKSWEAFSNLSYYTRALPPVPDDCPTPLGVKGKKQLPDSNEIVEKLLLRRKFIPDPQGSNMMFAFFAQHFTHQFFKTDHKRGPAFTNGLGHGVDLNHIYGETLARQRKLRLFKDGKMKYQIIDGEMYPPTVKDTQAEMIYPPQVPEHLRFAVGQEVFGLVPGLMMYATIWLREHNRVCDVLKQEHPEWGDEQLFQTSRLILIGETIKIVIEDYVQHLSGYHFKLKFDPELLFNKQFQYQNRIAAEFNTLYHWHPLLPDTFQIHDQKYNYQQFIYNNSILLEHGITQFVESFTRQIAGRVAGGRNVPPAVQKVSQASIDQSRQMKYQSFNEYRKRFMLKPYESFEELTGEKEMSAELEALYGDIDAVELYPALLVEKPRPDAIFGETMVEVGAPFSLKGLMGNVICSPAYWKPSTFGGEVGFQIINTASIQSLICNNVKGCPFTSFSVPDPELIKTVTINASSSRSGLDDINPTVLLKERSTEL
Kind of assay: Inhibition of human recombinant COX2 by EIA.

A short description of assay [2]: Selectivity index, ratio of IC50 for ovine COX1 to IC50 for human recombinant COX2.
Assay [3] deals with T2, Prostaglandin G/H synthase 1 (Ovis aries, UniProt P05979).
T2 sequence (P05979 whole entry): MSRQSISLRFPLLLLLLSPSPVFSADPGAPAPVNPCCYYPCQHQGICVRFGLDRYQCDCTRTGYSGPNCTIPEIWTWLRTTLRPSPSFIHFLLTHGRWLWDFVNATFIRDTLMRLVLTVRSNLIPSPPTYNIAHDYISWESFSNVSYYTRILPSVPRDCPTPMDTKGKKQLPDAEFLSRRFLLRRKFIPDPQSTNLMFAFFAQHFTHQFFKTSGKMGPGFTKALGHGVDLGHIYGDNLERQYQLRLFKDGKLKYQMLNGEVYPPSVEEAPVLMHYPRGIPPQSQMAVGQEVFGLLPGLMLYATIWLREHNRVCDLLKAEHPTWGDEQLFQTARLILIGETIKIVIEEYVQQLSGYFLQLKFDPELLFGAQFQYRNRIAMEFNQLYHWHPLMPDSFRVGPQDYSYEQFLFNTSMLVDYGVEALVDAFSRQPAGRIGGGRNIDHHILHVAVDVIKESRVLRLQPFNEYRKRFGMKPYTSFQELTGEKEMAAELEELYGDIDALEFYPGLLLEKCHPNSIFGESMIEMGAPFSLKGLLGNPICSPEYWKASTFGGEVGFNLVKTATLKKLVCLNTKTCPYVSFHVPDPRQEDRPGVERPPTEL
Description: Inhibition of ovine COX1 by EIA

The term IC50 denotes the concentration at which inhibition is half-maximal. Turning to `CCCC/C(=C(\c1ccccc1)c1ccc(O)cc1)c1ccc(S(C)(=O)=O)cc1`, the figures for the IC50 in assay [1] and in assay [3] were 11.8 µM and > 100 µM, respectively. The Ratio IC50 in assay [2] is > 8.5.

For `CCCCC(=C(c1ccccc1)c1ccccc1)c1ccc(S(C)(=O)=O)cc1`, the IC50 in assay [1] was found to be 2.7 µM; in assay [3] it was 9.1 µM. The Ratio IC50 in assay [2] worked out at 3.4.

For `CS(=O)(=O)c1ccc(C(CCF)=C(c2ccccc2)c2ccccc2)cc1`, the half-maximal inhibitory concentration (IC50) in assay [1] and in assay [3] was > 100 µM throughout.

`CCCC/C(=C(\c1ccccc1)c1ccc(OCCF)cc1)c1ccc(S(C)(=O)=O)cc1`: the concentration for half-maximal inhibition (IC50) is 22.3 µM in assay [1] and > 100 µM in assay [3]. Moreover, the Ratio IC50 in assay [2] is > 4.5.

Consider `CCCC/C(=C(\c1ccccc1)c1ccc(OC)cc1)c1ccc(S(C)(=O)=O)cc1`, for which the IC50 in assay [1] was 7.7 µM; in assay [3] it was > 100 µM. In addition, the Ratio IC50 in assay [2] is > 13.

Regarding `CC/C(=C(\c1ccccc1)c1ccc(OC)cc1)c1ccc(S(C)(=O)=O)cc1`, the IC50 in assay [1] was 10.7 µM; in assay [3] it was > 100 µM. The Ratio IC50 in assay [2] is > 9.3.

Consider `CCC(=C(c1ccccc1)c1ccccc1)c1ccc(S(C)(=O)=O)cc1`, for which the IC50 in assay [1] was found to be 1.2 µM; in assay [3], 31.6 µM. Besides, in assay [2], the Ratio IC50 stood at 26.3.
